Data taken from the NIST ThermoML archive (doi:10.1016/j.tca.2007.03.018).
Numbers after ± are expanded uncertainties.

Assay: molar heat capacity at saturation pressure
Details: Large sample (1 g) DSC

C1C2CC3CC1CC(C14CC5CC(CC(C5)C1)C4)(C2)C3 [1,1'-biadamantane]
Details	molar heat capacity [J/K/mol]
368.9 K, Crystal 2	422.5 ± 10
372.5 K, Crystal 2	428.1 ± 10
376.1 K, Crystal 2	435.3 ± 11
379.7 K, Crystal 2	439.7 ± 11
383.3 K, Crystal 2	443.1 ± 11
386.9 K, Crystal 2	448.3 ± 11
390.4 K, Crystal 2	452.1 ± 11
394 K, Crystal 2	456.9 ± 11
397.6 K, Crystal 2	460.5 ± 11
401.2 K, Crystal 2	466.4 ± 11
404.8 K, Crystal 2	471.7 ± 12
408.4 K, Crystal 2	471.9 ± 12
412 K, Crystal 2	478.1 ± 12
415.6 K, Crystal 2	481.4 ± 12
419.2 K, Crystal 2	490.8 ± 12
422.8 K, Crystal 2	493.1 ± 12
426.4 K, Crystal 2	496.1 ± 12
430 K, Crystal 2	501.3 ± 12
433.6 K, Crystal 2	507.8 ± 12
437.1 K, Crystal 2	513 ± 13
440.7 K, Crystal 2	519.9 ± 13
444.3 K, Crystal 2	525 ± 13
447.9 K, Crystal 2	529.9 ± 13
451.5 K, Crystal 2	537.9 ± 13
455.1 K, Crystal 2	544.8 ± 13
458.7 K, Crystal 2	549.6 ± 14
462.3 K, Crystal 2	556.8 ± 14
465.9 K, Crystal 2	563.6 ± 14
469.5 K, Crystal 2	572.6 ± 14
473 K, Crystal 2	579.1 ± 14
476.6 K, Crystal 2	584.1 ± 14
480.2 K, Crystal 2	587.8 ± 14
483.8 K, Crystal 2	600.3 ± 15
487.4 K, Crystal 2	611.9 ± 15
491 K, Crystal 2	607.2 ± 15
494.6 K, Crystal 2	617.9 ± 15
495.5 K, Crystal 2	621.1 ± 15
496.4 K, Crystal 2	621.4 ± 15
497.3 K, Crystal 2	621.7 ± 15
498.1 K, Crystal 2	626.7 ± 15
499 K, Crystal 2	629.7 ± 15
499.9 K, Crystal 2	632.7 ± 16
500.8 K, Crystal 2	635.2 ± 16
501.7 K, Crystal 2	637.1 ± 16
502.6 K, Crystal 2	636.9 ± 16
503.5 K, Crystal 2	639 ± 16
504.4 K, Crystal 2	644.5 ± 16
505.3 K, Crystal 2	647.9 ± 16
506.2 K, Crystal 2	659.8 ± 16
507 K, Crystal 2	693.8 ± 17
507.9 K, Crystal 2	741.7 ± 18
508.7 K, Crystal 2	773.6 ± 19
509.6 K, Crystal 1	792.3 ± 19
510.6 K, Crystal 1	763.7 ± 19
511.5 K, Crystal 1	724.5 ± 18
512.4 K, Crystal 1	700.9 ± 17
513.3 K, Crystal 1	684.2 ± 17
514.2 K, Crystal 1	674.9 ± 16
515.2 K, Crystal 1	668.9 ± 16
516.1 K, Crystal 1	662.2 ± 16
517 K, Crystal 1	655.5 ± 16
517.9 K, Crystal 1	658.8 ± 16
518.8 K, Crystal 1	647.2 ± 16
519.7 K, Crystal 1	637.1 ± 16
520.6 K, Crystal 1	640.5 ± 16
522.4 K, Crystal 1	641.1 ± 16
523.3 K, Crystal 1	647.5 ± 16
524.2 K, Crystal 1	653.8 ± 16
525.1 K, Crystal 1	653.9 ± 16
526.8 K, Crystal 1	660.2 ± 16
527.7 K, Crystal 1	653 ± 16
528.6 K, Crystal 1	663.2 ± 16
529.5 K, Crystal 1	664.4 ± 16
530.4 K, Crystal 1	664.4 ± 16
531.3 K, Crystal 1	663.3 ± 16
532.2 K, Crystal 1	664.8 ± 16
533.1 K, Crystal 1	667.8 ± 16
534 K, Crystal 1	666.7 ± 16
534.9 K, Crystal 1	674.5 ± 16
535.8 K, Crystal 1	671 ± 16
536.7 K, Crystal 1	671.7 ± 16
537.6 K, Crystal 1	675 ± 16
538.5 K, Crystal 1	681.1 ± 17
539.4 K, Crystal 1	676.6 ± 17
540.3 K, Crystal 1	677 ± 17
543.1 K, Crystal 1	681.3 ± 17
544.9 K, Crystal 1	692.5 ± 17
546.7 K, Crystal 1	693.7 ± 17
548.5 K, Crystal 1	702.1 ± 17
550.3 K, Crystal 1	709.8 ± 17
552.1 K, Crystal 1	724.2 ± 18
553.9 K, Crystal 1	741 ± 18
555.7 K, Crystal 1	752.9 ± 18
557.4 K, Crystal 1	744.3 ± 18
559.2 K, Crystal 1	772.6 ± 19
561 K, Crystal 1	802.7 ± 20
